PubChem BioAssay (NCI)
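These data come from cells grown in 96-well plates and exposed to compound for 48 hours at five concentrations. At the TGI there is no net growth.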

Key:
Assay in all cases: NCI-60 cell line screen, 48 h
M19-MEL melanoma = test system: M19-MEL melanoma
NCI-H23 lung = test system: NCI-H23 lung
SK-OV-3 ovarian = test system: SK-OV-3 ovarian
COLO 205 colon = test system: COLO 205 colon
LOX IMVI melanoma = test system: LOX IMVI melanoma
MOLT-4 leukemia = test system: MOLT-4 leukemia
OVCAR-8 ovarian = test system: OVCAR-8 ovarian
SF-295 CNS = test system: SF-295 CNS
DMS 273 small cell lung = test system: DMS 273 small cell lung
HCT-15 colon = test system: HCT-15 colon
SF-539 CNS = test system: SF-539 CNS
OVCAR-5 ovarian = test system: OVCAR-5 ovarian
CAKI-1 renal = test system: CAKI-1 renal
OVCAR-3 ovarian = test system: OVCAR-3 ovarian
UO-31 renal = test system: UO-31 renal
UACC-257 melanoma = test system: UACC-257 melanoma
DLD-1 colon = test system: DLD-1 colon
NCI-H226 lung = test system: NCI-H226 lung
U251 CNS = test system: U251 CNS
HL-60(TB) leukemia = test system: HL-60(TB) leukemia
SW-620 colon = test system: SW-620 colon
M14 melanoma = test system: M14 melanoma
A498 renal = test system: A498 renal
CCRF-CEM leukemia = test system: CCRF-CEM leukemia
786-0 renal = test system: 786-0 renal
MALME-3M melanoma = test system: MALME-3M melanoma
SK-MEL-5 melanoma = test system: SK-MEL-5 melanoma
OVCAR-4 ovarian = test system: OVCAR-4 ovarian
IGROV1 ovarian = test system: IGROV1 ovarian
TK-10 renal = test system: TK-10 renal
NCI-H460 lung = test system: NCI-H460 lung
UACC-62 melanoma = test system: UACC-62 melanoma
HT29 colon = test system: HT29 colon
HOP-18 NSCLC = test system: HOP-18 NSCLC
SN12C renal = test system: SN12C renal
DMS 114 small cell lung = test system: DMS 114 small cell lung
RXF 393 renal = test system: RXF 393 renal
EKVX NSCLC = test system: EKVX NSCLC
SK-MEL-28 melanoma = test system: SK-MEL-28 melanoma
SNB-19 CNS = test system: SNB-19 CNS
SF-268 CNS = test system: SF-268 CNS
SNB-78 CNS = test system: SNB-78 CNS
A549 NSCLC = test system: A549 NSCLC
ACHN renal = test system: ACHN renal
SK-MEL-2 melanoma = test system: SK-MEL-2 melanoma
HOP-62 NSCLC = test system: HOP-62 NSCLC
HOP-92 NSCLC = test system: HOP-92 NSCLC
K-562 leukemia = test system: K-562 leukemia
HCT-116 colon = test system: HCT-116 colon
HCC-2998 colon = test system: HCC-2998 colon
SNB-75 CNS = test system: SNB-75 CNS
KM12 colon = test system: KM12 colon
XF 498 CNS = test system: XF 498 CNS
RPMI-8226 leukemia = test system: RPMI-8226 leukemia
LXFL 529 NSCLC = test system: LXFL 529 NSCLC
KM20L2 colon = test system: KM20L2 colon
NCI-H522 lung = test system: NCI-H522 lung

## COc1cccc(C2SCc3nc4ccccc4n32)c1 (centres undefined)
M19-MEL melanoma
  TGI: > 100 µM
NCI-H23 lung
  TGI: > 100 µM
SK-OV-3 ovarian
  TGI: > 100 µM
COLO 205 colon
  TGI: > 100 µM
LOX IMVI melanoma
  TGI: > 100 µM
MOLT-4 leukemia
  TGI: > 100 µM
OVCAR-8 ovarian
  TGI: > 100 µM
SF-295 CNS
  TGI: > 100 µM
DMS 273 small cell lung
  TGI: > 100 µM
HCT-15 colon
  TGI: > 100 µM
SF-539 CNS
  TGI: > 100 µM
OVCAR-5 ovarian
  TGI: > 100 µM
CAKI-1 renal
  TGI: > 100 µM
OVCAR-3 ovarian
  TGI: > 100 µM
UO-31 renal
  TGI: 95.7 µM
UACC-257 melanoma
  TGI: > 100 µM
DLD-1 colon
  TGI: > 100 µM
NCI-H226 lung
  TGI: > 100 µM
U251 CNS
  TGI: > 100 µM
HL-60(TB) leukemia
  TGI: > 100 µM
SW-620 colon
  TGI: > 100 µM
M14 melanoma
  TGI: > 100 µM
A498 renal
  TGI: > 100 µM
CCRF-CEM leukemia
  TGI: > 100 µM
786-0 renal
  TGI: > 100 µM
MALME-3M melanoma
  TGI: > 100 µM
SK-MEL-5 melanoma
  TGI: 65.7 µM
OVCAR-4 ovarian
  TGI: > 100 µM
IGROV1 ovarian
  TGI: > 100 µM
TK-10 renal
  TGI: 55.1 µM
NCI-H460 lung
  TGI: > 100 µM
UACC-62 melanoma
  TGI: > 100 µM
HT29 colon
  TGI: > 100 µM
HOP-18 NSCLC
  TGI: > 100 µM
SN12C renal
  TGI: > 100 µM
DMS 114 small cell lung
  TGI: > 100 µM
RXF 393 renal
  TGI: > 100 µM
EKVX NSCLC
  TGI: > 100 µM
SK-MEL-28 melanoma
  TGI: > 100 µM
SNB-19 CNS
  TGI: > 100 µM
SF-268 CNS
  TGI: > 100 µM
SNB-78 CNS
  TGI: > 100 µM
A549 NSCLC
  TGI: > 100 µM
ACHN renal
  TGI: > 100 µM
SK-MEL-2 melanoma
  TGI: > 100 µM
HOP-62 NSCLC
  TGI: > 100 µM
HOP-92 NSCLC
  TGI: 69.8 µM
K-562 leukemia
  TGI: > 100 µM
HCT-116 colon
  TGI: > 100 µM
HCC-2998 colon
  TGI: > 100 µM
SNB-75 CNS
  TGI: > 100 µM
KM12 colon
  TGI: > 100 µM

## CC1=C(C(=O)CC(=O)C(=O)Nc2ccc(C)c(C)c2)Sc2ccccc2N1
M19-MEL melanoma
  TGI: > 100 µM
NCI-H23 lung
  TGI: > 100 µM
SK-OV-3 ovarian
  TGI: > 100 µM
COLO 205 colon
  TGI: > 100 µM
LOX IMVI melanoma
  TGI: > 100 µM
OVCAR-8 ovarian
  TGI: > 100 µM
XF 498 CNS
  TGI: > 100 µM
SF-295 CNS
  TGI: > 100 µM
RPMI-8226 leukemia
  TGI: > 100 µM
DMS 273 small cell lung
  TGI: > 100 µM
HCT-15 colon
  TGI: > 100 µM
SF-539 CNS
  TGI: > 100 µM
OVCAR-5 ovarian
  TGI: > 100 µM
CAKI-1 renal
  TGI: > 100 µM
OVCAR-3 ovarian
  TGI: > 100 µM
UO-31 renal
  TGI: > 100 µM
UACC-257 melanoma
  TGI: > 100 µM
DLD-1 colon
  TGI: > 100 µM
NCI-H226 lung
  TGI: > 100 µM
U251 CNS
  TGI: > 100 µM
SW-620 colon
  TGI: > 100 µM
M14 melanoma
  TGI: > 100 µM
A498 renal
  TGI: > 100 µM
786-0 renal
  TGI: > 100 µM
MALME-3M melanoma
  TGI: > 100 µM
SK-MEL-5 melanoma
  TGI: > 100 µM
OVCAR-4 ovarian
  TGI: > 100 µM
IGROV1 ovarian
  TGI: > 100 µM
TK-10 renal
  TGI: > 100 µM
NCI-H460 lung
  TGI: > 100 µM
UACC-62 melanoma
  TGI: > 100 µM
HT29 colon
  TGI: > 100 µM
HOP-18 NSCLC
  TGI: > 100 µM
SN12C renal
  TGI: > 100 µM
DMS 114 small cell lung
  TGI: > 100 µM
LXFL 529 NSCLC
  TGI: > 100 µM
RXF 393 renal
  TGI: > 100 µM
EKVX NSCLC
  TGI: > 100 µM
SK-MEL-28 melanoma
  TGI: > 100 µM
KM20L2 colon
  TGI: > 100 µM
SNB-19 CNS
  TGI: > 100 µM
SF-268 CNS
  TGI: > 100 µM
SNB-78 CNS
  TGI: > 100 µM
A549 NSCLC
  TGI: > 100 µM
ACHN renal
  TGI: > 100 µM
HOP-62 NSCLC
  TGI: > 100 µM
HOP-92 NSCLC
  TGI: > 100 µM
NCI-H522 lung
  TGI: > 100 µM
HCT-116 colon
  TGI: > 100 µM
HCC-2998 colon
  TGI: > 100 µM
SNB-75 CNS
  TGI: > 100 µM
KM12 colon
  TGI: > 100 µM
